According to patent US10233179B2, “Thiazoles and uses thereof” (AbbVie Inc., priority 2013, dated 2019):

How the values were obtained:
[1] = tested on: HEp-2 cells; experiment: Cytotoxicity assay (MTT) in parallel with the antiviral assay; assay type: cell-based; settings: uninfected HEp-2 cells, 4 days incubation, MTT viability
Description: HEp-2 cells and RSV (Group A, Long Strain) were obtained from the American Type Culture Collection (Manassas, Va.). Cytotoxicity of the compounds was determined in experiments done in parallel with the antiviral assays. To do this, 100 μL of assay medium was added to the wells of HEp-2 cells pretreated with 100 μL serially diluted compounds as described above. After 4 days of incubation, the viability of the cells was determined by the MTT assay in the same way as detailed in the “Antiviral Assay” method. Results were expressed as 50% toxicity dose (TD50) values. Compounds were tested to determine both their antiviral and toxicity to determine their therapeutic window. Determination of the EC50 and TD50 of these active compounds were repeated one additional time to confirm the window.

[2] = tested on: RSV (Group A, Long Strain); experiment: Antiviral cytopathic effect (CPE) protection assay, MTT readout; assay type: cell-based; settings: human respiratory syncytial virus, 96 h; HEp-2 cells, 0.2 MOI RSV, 4 days incubation, protection from CPE by MTT
Description: HEp-2 cells and RSV (Group A, Long Strain) were obtained from the American Type Culture Collection (Manassas, Va.).
A cytopathic effect (CPE) protection assay was performed to determine the ability of a compound to protect the cells from viral infection and thus the CPE induced by viral infection. 96-Well plates were first seeded with 3×10^3 HEp-2 cells per well in Dulbecco's modified Eagle's medium (DMEM) containing 10% fetal bovine serum (FBS). One day after the cells were seeded, they were preincubated with serial dilutions of compounds prepared in 100 μL assay medium (DMEM mixed with F12 medium at a 1:1 ratio, supplemented with 2% FBS and 1 mM sodium pyruvate) for 1 hour at 37° C. 100 μL of assay medium containing 0.2 multiplicity of infection (MOI) of RSV was then added to each well of cells. In addition to wells containing infected cells incubated with compounds, each plate also contained replicates of two kinds of controls: (1) Virus control contained cells infected with 0.2 MOI of RSV in assay medium, (2) Uninfected cell control contained cells incubated with assay medium only. After 4 days of incubation at 37° C., the viability of cells was assessed using MTT (Thiazolyl blue tetrazolium bromide, Sigma). A stock solution of MTT, at a concentration of 4 mg/mL in phosphate-buffered saline, was added to all wells at 25 μL per well. Plates were further incubated for 4 hours, and each well was then treated with 50 μL of a solution containing 20% sodium dodecyl sulfate (SDS) and 0.02 N HCl. After an overnight incubation, the plates were measured on a BioTek® microtiter plate reader at wavelengths of 570 nm and 650 nm. The MTT detection is based on the fact that viable (uninfected) cells can reduce the tetrazolium salts into colored formazan products, which can then be quantitated by spectrometry. Based on the spectrometric absorbance of each sample, the percent of protection from CPE, which is an indicator of protection from viral infection, can be calculated for each compound and the 50% effective concentrations (EC50) can be calculated using a nonlinear regression curve fitting equation provided by the GraphPad Prism® 4 software.
Compounds were tested to determine both their antiviral and toxicity to determine their therapeutic window. Determination of the EC50 and TD50 of these active compounds were repeated one additional time to confirm the window.

Row | Structure (SMILES) | MTT TD50 [1] [µM] | EC50 [2] [nM]
1 | c1cc(CN(CCC2(c3ccncc3)CC2)Cc2cccn2-c2nccs2)n(-c2nccs2)c1 [Example 66, 2-[1-(pyridin-4-yl)cyclopropyl]-N,N-bis{[1-(1,3-thiazol-2-yl)-1H-pyrrol-2-yl]methyl}ethanamine] | 14 | 200
2 | Cc1ccccc1CN(Cc1cccn1-c1nncs1)Cc1cccn1-c1nncs1 [Example 12, 1-(2-methylphenyl)-N,N-bis{[1-(1,3,4-thiadiazol-2-yl)-1H-pyrrol-2-yl]methyl}methanamine] | >10 | 64
3 | FC(F)(F)c1ccc(CN(Cc2cccn2-c2nncs2)Cc2cccn2-c2nncs2)cc1 [Example 54, 1-[1-(1,3,4-thiadiazol-2-yl)-1H-pyrrol-2-yl]-N-{[1-(1,3,4-thiadiazol-2-yl)-1H-pyrrol-2-yl]methyl}-N-[4-(trifluoromethyl)benzyl]methanamine] | 21 | > 21000
4 | c1cnnc(N(Cc2cccn2-c2nccs2)Cc2cccn2-c2nccs2)c1 [Example 50, N,N-bis{[1-(1,3-thiazol-2-yl)-1H-pyrrol-2-yl]methyl}pyridazin-3-amine] | >100 | > 100000
5 | c1cc(CN(Cc2cccn2-c2nncs2)C[C@H]2CCOC2)n(-c2nncs2)c1 [Example 61, 1-[(3R)-tetrahydrofuran-3-yl]-N,N-bis{[1-(1,3,4-thiadiazol-2-yl)-1H-pyrrol-2-yl]methyl}methanamine] | >100 | > 100000
6 | N#Cc1ccc(CN(Cc2cccn2-c2nncs2)Cc2cccn2-c2nncs2)cc1 [Example 56, 4-[(bis{[1-(1,3,4-thiadiazol-2-yl)-1H-pyrrol-2-yl]methyl}amino)methyl]benzonitrile] | >100 | 46000
7 | FC(F)(F)Cn1cc(CN(Cc2cccn2-c2nccs2)Cc2cccn2-c2nccs2)cn1 [Example 58, 1-[1-(1,3-thiazol-2-yl)-1H-pyrrol-2-yl]-N-{[1-(1,3-thiazol-2-yl)-1H-pyrrol-2-yl]methyl}-N-{[1-(2,2,2-trifluoroethyl)-1H-pyrazol-4-yl]methyl}methanamine] | 49 | 520
8 | c1ccc(C2(CCN(Cc3cccn3-c3nncs3)Cc3cccn3-c3nncs3)CC2)nc1 [Example 21, 2-[1-(pyridin-2-yl)cyclopropyl]-N,N-bis{[1-(1,3,4-thiadiazol-2-yl)-1H-pyrrol-2-yl]methyl}ethanamine] | >32 | 62
9 | c1cncc(C2(CCN(Cc3cccn3-c3nccs3)Cc3cccn3-c3nccs3)CC2)c1 [Example 60, 2-[1-(pyridin-3-yl)cyclopropyl]-N,N-bis{[1-(1,3-thiazol-2-yl)-1H-pyrrol-2-yl]methyl}ethanamine] | >100 | 850
10 | C[C@H](c1ccccc1Cl)N(Cc1cccn1-c1nncs1)Cc1cccn1-c1nncs1 [Example 19, (1R)-1-(2-chlorophenyl)-N,N-bis{[1-(1,3,4-thiadiazol-2-yl)-1H-pyrrol-2-yl]methyl}ethanamine] | >32 | 2800
11 | Clc1ccc(CN(Cc2cccn2-c2nncs2)Cc2cccn2-c2nncs2)c(Cl)c1 [Example 42, 1-(2,4-dichlorophenyl)-N,N-bis{[1-(1,3,4-thiadiazol-2-yl)-1H-pyrrol-2-yl]methyl}methanamine] | 32 | > 32000
12 | Cc1c(C(C)N(Cc2cccn2-c2nccs2)Cc2ncc(-c3ccccc3)n2C)cnn1-c1cccc(F)c1 (stereo not shown) [Example 41, 1-[1-(3-fluorophenyl)-5-methyl-1H-pyrazol-4-yl]-N-[(1-methyl-5-phenyl-1H-imidazol-2-yl)methyl]-N-{[1-(1,3-thiazol-2-yl)-1H-pyrrol-2-yl]methyl}ethanamine] | 5.6 | > 5600
13 | Cc1c([C@@H](C)N(Cc2cccn2-c2nccs2)Cc2cccn2-c2nccs2)cnn1-c1cccc(F)c1 [Example 3, (1R)-1-[1-(3-fluorophenyl)-5-methyl-1H-pyrazol-4-yl]-N,N-bis{[1-(1,3-thiazol-2-yl)-1H-pyrrol-2-yl]methyl}ethanamine] | >32 | 960
14 | Fc1ccccc1CN(Cc1cccn1-c1nccs1)Cc1cccn1-c1nccs1 [Example 40, 1-(2-fluorophenyl)-N,N-bis{[1-(1,3-thiazol-2-yl)-1H-pyrrol-2-yl]methyl}methanamine] | 6.3 | 18
15 | c1ccc(N(Cc2cccn2-c2nccs2)Cc2cccn2-c2nccs2)cc1 [Example 53, N,N-bis{[1-(1,3-thiazol-2-yl)-1H-pyrrol-2-yl]methyl}aniline] | >32 | 2700
16 | c1cc(CN(Cc2cccn2-c2nccs2)CC2CCCO2)n(-c2nccs2)c1 (stereo not shown) [Example 33, 1-(tetrahydrofuran-2-yl)-N,N-bis{[1-(1,3-thiazol-2-yl)-1H-pyrrol-2-yl]methyl}methanamine] | 16 | 4600
17 | FC(F)(F)c1cccc(CN(Cc2cccn2-c2nncs2)Cc2cccn2-c2nncs2)c1 [Example 16, 1-[1-(1,3,4-thiadiazol-2-yl)-1H-pyrrol-2-yl]-N-{[1-(1,3,4-thiadiazol-2-yl)-1H-pyrrol-2-yl]methyl}-N-[3-(trifluoromethyl)benzyl]methanamine] | 30 | 2100
18 | c1cc(CN(Cc2cccn2-c2nncs2)CC2C[C@H]3CC[C@@H]2C3)n(-c2nncs2)c1 (stereo partly drawn) [Example 11, 1-[(1R,4S)-bicyclo[2.2.1]hept-2-yl]-N,N-bis{[1-(1,3,4-thiadiazol-2-yl)-1H-pyrrol-2-yl]methyl}methanamine] | 26 | 560
19 | Cc1c([C@H](C)N(Cc2cccn2-c2nccs2)Cc2cccn2-c2nccs2)cnn1-c1cccc(F)c1 [Example 2, (1S)-1-[1-(3-fluorophenyl)-5-methyl-1H-pyrazol-4-yl]-N,N-bis{[1-(1,3-thiazol-2-yl)-1H-pyrrol-2-yl]methyl}ethanamine] | >32 | 71
20 | CC(c1ccc(Cl)c(Cl)c1)N(Cc1cccn1-c1nncs1)Cc1cccn1-c1nncs1 (stereo not shown) [Example 17, 1-(3,4-dichlorophenyl)-N,N-bis{[1-(1,3,4-thiadiazol-2-yl)-1H-pyrrol-2-yl]methyl}ethanamine] | >32 | 15000
21 | Clc1ccc(CN(Cc2cccn2-c2nccs2)Cc2cccn2-c2nccs2)c(Cl)c1 [Example 29, 1-(2,4-dichlorophenyl)-N,N-bis{[1-(1,3-thiazol-2-yl)-1H-pyrrol-2-yl]methyl}methanamine] | >32 | 320
22 | Clc1cccc(Cl)c1CN(Cc1cccn1-c1nncs1)Cc1cccn1-c1nncs1 [Example 55, 1-(2,6-dichlorophenyl)-N,N-bis{[1-(1,3,4-thiadiazol-2-yl)-1H-pyrrol-2-yl]methyl}methanamine] | >32 | > 32000
23 | Clc1cnc(CN(Cc2cccn2-c2nncs2)Cc2cccn2-c2nncs2)c(Cl)c1 [Example 14, 1-(3,5-dichloropyridin-2-yl)-N,N-bis{[1-(1,3,4-thiadiazol-2-yl)-1H-pyrrol-2-yl]methyl}methanamine] | 90 | 4800
24 | FC(F)(F)c1cccc(CN(Cc2cccn2-c2nccs2)Cc2cccn2-c2nccs2)c1 [Example 44, 1-[1-(1,3-thiazol-2-yl)-1H-pyrrol-2-yl]-N-{[1-(1,3-thiazol-2-yl)-1H-pyrrol-2-yl]methyl}-N-[3-(trifluoromethyl)benzyl]methanamine] | 38 | 120
25 | Cc1c(C(C)N(Cc2cccn2-c2nccs2)Cc2cccn2-c2nccs2)cnn1-c1cccc(F)c1 (racemic) [Example 1, 1-[1-(3-fluorophenyl)-5-methyl-1H-pyrazol-4-yl]-N,N-bis{[1-(1,3-thiazol-2-yl)-1H-pyrrol-2-yl]methyl}ethanamine] | 11 | 120
26 | Clc1ccccc1CN(Cc1cccn1-c1nccs1)Cc1cccn1-c1nccs1 [Example 47, 1-(2-chlorophenyl)-N,N-bis{[1-(1,3-thiazol-2-yl)-1H-pyrrol-2-yl]methyl}methanamine] | 7.0 | 15
